Substitutions are numbered along the chain they refer to. In names and notes the source's numbering stands. Read-outs that look alike come from different tables or passages of the source.
What was measured:
[1] = test system: T1, mODH-582; experiment: NAD(P)H absorbance at […] nm, Michaelis-Menten; format: biochemical, hot spring metagenome; conditions: pyruvate 10 mM, NAD(P)H 0.2 mM, 100 mM sodium phosphate pH 8.0, 30 °C; read-out: L-Phe / KM
T1 construct: N-terminal His-tag, pET14b, E. coli BL21(DE3); codon-optimised synthetic gene; source reads SRR16606022; one of 11 TPA records BK063522-BK063532 (not assigned singly)

[2] = test system: T2, mODH-55; experiment: NAD(P)H absorbance at […] nm, Michaelis-Menten; format: biochemical, hot spring metagenome; conditions: pyruvate 10 mM, 100 mM sodium phosphate pH 8.0, 30 °C
T2 construct: N-terminal His-tag, pET14b, E. coli BL21(DE3); codon-optimised synthetic gene; source reads SRR16606022; one of 11 TPA records BK063522-BK063532 (not assigned singly)

[3] = test system: T3, mODH-48; experiment: NAD(P)H absorbance at […] nm, Michaelis-Menten; format: biochemical, hot spring metagenome; conditions: pyruvate 10 mM, 100 mM sodium phosphate pH 8.0, 30 °C
T3 construct: N-terminal His-tag, pET14b, E. coli BL21(DE3); codon-optimised synthetic gene; source reads SRR16606022; one of 11 TPA records BK063522-BK063532 (not assigned singly); identical to an obsolete UniParc entry

[4] = test system: T4, mODH-49; experiment: NAD(P)H absorbance at […] nm, Michaelis-Menten; format: biochemical, hot spring metagenome; conditions: pyruvate 10 mM, 100 mM sodium phosphate pH 8.0, 30 °C
T4 construct: N-terminal His-tag, pET14b, E. coli BL21(DE3); codon-optimised synthetic gene; source reads SRR16606022; one of 11 TPA records BK063522-BK063532 (not assigned singly)

[5] = test system: T1, mODH-582; experiment: NAD(P)H absorbance at […] nm, Michaelis-Menten; format: biochemical, hot spring metagenome; conditions: pyruvate 10 mM, 100 mM sodium phosphate pH 8.0, 30 °C
[6] = test system: T5, mODH-45; experiment: NAD(P)H absorbance at […] nm, Michaelis-Menten; format: biochemical, hot spring metagenome; conditions: pyruvate 10 mM, 100 mM sodium phosphate pH 8.0, 30 °C
T5 construct: N-terminal His-tag, pET14b, E. coli BL21(DE3); codon-optimised synthetic gene; source reads SRR16606022; one of 11 TPA records BK063522-BK063532 (not assigned singly)

[7] = test system: T6, mODH-47; experiment: NAD(P)H absorbance at […] nm, Michaelis-Menten; format: biochemical, hot spring metagenome; conditions: pyruvate 10 mM, 100 mM sodium phosphate pH 8.0, 30 °C
T6 construct: N-terminal His-tag, pET14b, E. coli BL21(DE3); codon-optimised synthetic gene; source reads SRR16606022; one of 11 TPA records BK063522-BK063532 (not assigned singly)

[8] = substrate: N[C@@H](Cc1ccccc1)C(=O)O; experiment: purified protein, by the assay type; parameters: Michaelis-Menten kinetics of reductive amination with pyruvate, NAD(P)H consumption by absorbance at 340 nm, 30 °C, pH 8.0
Description: (§1) Enzyme activities were measured spectrophotometrically at 30 °C in 96-well half-area plates in a Thermo Scientific™ Multiskan SkyHigh Microplate Spectrophotometer (Thermo Fisher Scientific Inc., Waltham, MA, USA). Standard assays were carried out by using 15 mM amino acid and 0.2 mM NAD(P)H in 100 mM sodium phosphate buffer (pH = 8.0). The reaction was started by the addition of 10 mM pyruvate. The decrease in absorbance was monitored at 340 nm. Initial velocities (v0) were calculated from the linear section of the plots using an NAD(P)H calibration. For the determination of kinetic constants, amino acid concentrations were varied between 1 and 30 mM, while cofactor concentrations were between 0.04 and 0.5 mM. Depending on the specific activities of each enzyme, enzyme concentrations were fixed between 0.015 and 1.5 µM (Tables S9-S12). Kinetic constants were determined from the Michaelis–Menten plots using GraphPad Prism software (Tables S9-S12, Figures S15-S18). Heat stability experiments were carried out by incubating the enzymes at 40, 50, or 60 °C for 1 h before measuring their specific activities. Nine selected mODH genes as well as the coding sequence of ArODH were codon optimized for E. coli, synthesized by Genescript and cloned into pET14b vector using NdeI and BamHI cloning sites resulting in N-terminal His-tag proteins (for protein and nucleotide sequences see Table S2). Plasmids were transformed into E.coli BL21(DE3) chemically competent cells, and 5 mL overnight cultures were grown in Luria–Bertani (LB) medium supplemented with carbenicillin. Then, 4 mL was added to 500 mL fresh LB medium. The culture was grown at 37 °C to OD = 0.5 and induced by addition of 0.5 mM IPTG. The flasks were then incubated in a shaker at 18 °C overnight. The cells were harvested by centrifugation at 4000 rpm, 4 °C for 30 min. The pellets were resuspended in lysis buffer (50 mM Tris pH = 8.5, 300 mM NaCl, 1 mM benzamidine, 2 mM [compound left out] [compound left out], 1 mM Tris(2-carboxyethyl)phosphine (TCEP), DNase) and lysed by ultrasonication. The suspension was centrifuged at 11,000 rpm, 4 °C for 30 min. The supernatant was loaded onto equilibrated Ni–NTA column and washed with 15 mM imidazole in lysis buffer. The bound protein was eluted with 250 mM imidazole in lysis buffer and then dialyzed in 50 mM Tris pH = 8.5. The resulting solution was aliquoted after addition of 10% glycerol and then stored at − 20 °C until further use. Total protein concentration was determined based on absorption at 280 nm measured on a NanoDrop spectrophotometer. With this method, six mODHs and ArODH could be purified (see Table S2). Three mODHs were not expressed in soluble form in this experimental setting.

[9] = substrate: NC(=O)C1=CN([C@@H]2O[C@H](COP(=O)(O)OP(=O)(O)OC[C@H]3O[C@@H](n4cnc5c(N)ncnc54)[C@H](O)[C@@H]3O)[C@@H](O)[C@H]2O)C=CC1; experiment: purified protein, by the assay type; parameters: Michaelis-Menten kinetics of reductive amination with pyruvate, NAD(P)H consumption by absorbance at 340 nm, 30 °C, pH 8.0
Description: as §1

[10] = substrate: N[C@@H](Cc1ccccc1)C(=O)O; experiment: purified protein; format: biochemical, Arthrobacter sp. 1C; conditions: pyruvate 10 mM, NAD(P)H 0.2 mM, 100 mM sodium phosphate pH 8.0, 30 °C
[11] = substrate: N[C@@H](CC(=O)O)C(=O)O; experiment: purified protein; conditions: pyruvate 10 mM, NAD(P)H 0.2 mM, 100 mM sodium phosphate pH 8.0, 30 °C
[12] = L-Asp 15 mM, read-out: NADH / KM
[13] = L-Asp 15 mM, read-out: NADPH / KM
[14] = NAD(P)H 0.2 mM, read-out: L-Asp / KM

## N[C@@H](Cc1ccccc1)C(=O)O [L-Phe]
[1]
  Km: 32700 ± 4700 µM

## NC(=O)C1=CN([C@@H]2O[C@H](COP(=O)(O)OP(=O)(O)OC[C@H]3O[C@@H](n4cnc5c(N)ncnc54)[C@H](O)[C@@H]3O)[C@@H](O)[C@H]2O)C=CC1 [NADH]
[2]; [12]
  Km: 442 ± 63 µM
[3]; [12]
  Km: 93 ± 15 µM
[4]; [12]
  Km: 1830 ± 423 µM
[5]; [12]
  Km: 29 ± 11 µM
[6]; [12]
  Km: 447 ± 64 µM

## NC(=O)C1=CN([C@@H]2O[C@H](COP(=O)(O)OP(=O)(O)OC[C@H]3O[C@@H](n4cnc5c(N)ncnc54)[C@H](OP(=O)(O)O)[C@@H]3O)[C@@H](O)[C@H]2O)C=CC1 [NADPH]
[2]; [13]
  Km: 68 ± 13 µM
[3]; [13]
  Km: 17 ± 7 µM
[4]; [13]
  Km: 85 ± 17 µM
[5]; [13]
  Km: 318 ± 112 µM
[7]; [13]
  Km: 93 ± 21 µM
[6]; [13]
  Km: 118 ± 24 µM

## N[C@@H](CC(=O)O)C(=O)O [compound 3, L-Asp]
[2]; [14]
  Km: 1500 ± 200 µM
[3]; [14]
  Km: 500 ± 100 µM
[4]; [14]
  Km: 15000 ± 2300 µM
[5]; [14]
  Km: 24800 ± 4600 µM
[7]; [14]
  Km: 1200 ± 300 µM
[6]; [14]
  Km: 21500 ± 5300 µM

B1: ArODH (Arthrobacter sp. 1C) (protein)
chain: MIESKTYAVLGLGNGGHAFAAYLALKGQSVLAWDIDAQRIKEIQDRGAIIAEGPGLAGTAHPDLLTSDIGLAVKDADVILIVVPAIHHASIAANIASYISEGQLIILNPGATGGALEFRKILRENGAPEVTIGETSSMLFTCRSERPGQVTVNAIKGAMDFACLPAAKAGWALEQIGSVLPQYVAVENVLHTSLTNVNAVMHPLPTLLNAARCESGTPFQYYLEGITPSVGSLAEKVDAERIAIAKAFDLNVPSVCEWYKESYGQSPATIYEAVQGNPAYRGIAGPINLNTRYFFEDVSTGLVPLSELGRAVNVPTPLIDAVLDLISSLIDTDFRKEGRTLEKLGLSGLTAAGIRSAVE
notes: N-terminal His-tag, pET14b, E. coli BL21(DE3); codon-optimised synthetic gene
[8]
  Km: 18100 ± 4500 µM
  Vmax: 0.001 µmol/min
  kcat: 11.1 ± 1.5 s⁻¹
[9]
  Km: 292 ± 77 µM
  Vmax: 0.11 µmol/min
  kcat: 1240 ± 174 s⁻¹
[10]
  Km: 1400 ± 500 µM
  kcat: 861 ± 70 s⁻¹
  kcat/Km: 630000 M⁻¹ s⁻¹

B2: ArODH (Arthrobacter sp. 1C; A111R/N198G) (protein)
chain: B1 chain with A111R, N198G
[11]
  Km: 58300 ± 19600 µM
  kcat: 2.8 s⁻¹
  kcat/Km: 50 M⁻¹ s⁻¹
